The subject of one experiment is HIV-1LAI. The experiment can be described thus: Antiviral MTT assay, MT-2 cells exposed to HIV-1LAI. The class given is cell-based. The conditions noted are these: Human immunodeficiency virus 1, MT2, read-out: IC50 (antiviral activity).
Experiment [1] deals with HIV-1ERS104pre (wild type). The experiment can be described thus: Antiviral p24 Gag assay in PHA-PBMs, wild-type HIV-1ERS104pre. The class given is cell-based.

SMILES strings stand for the structures.

Regarding `CC(C)CN(C[C@@H](O)[C@H](Cc1ccccc1)NC(=O)O[C@H]1CO[C@H]2OCC[C@H]21)S(=O)(=O)c1ccc(N)cc1` [Darunavir], the IC50 (in general, the concentration needed to halve the response being measured) in the experiment with HIV-1LAI was determined as 3 nM.
Consider `COc1ccc(S(=O)(=O)N(CC(C)C)C[C@@H](O)[C@H](Cc2cccc(-c3ccccc3OC)c2)NC(=O)O[C@H]2CO[C@H]3OCC[C@H]32)cc1` [Inhibitor 21e, (3R,3aS,6aR)-hexahydrofuro[2,3-b]furan-3-yl-((2S,3R)-3-hydroxy-4-(N-isobutyl-4-methoxyphenylsulfonamido)-1-(2'-methoxy-[1,1'-biphenyl]-3-yl)butan-2-yl)carbamate], for which the “EC50 fold better than APV” value in experiment [1] is ~10 fold.
